Source: patent publication US20020055171A1, “PREPARATION OF BIOLOGICALLY ACTIVE 3-METHYLENEOXINDOLE AND DEFINITION OF ITS APPLICATION IN STIMULATION OF PLANT GROWTH AND TISSUE REPAIR” (priority 1998, published 2002)

Assays:
[1] = test system: cuttings from 12-day old bean plants; assay: Root formation in bean cuttings planted in treated vermiculite; type: in vivo; settings: for Average dry wt (grams) of root mass (14 days after treatment): 10 cuttings per treatment
Protocol: Legend to Table I. Ten (10) cuttings were used per treatment. Cuttings were obtained from 12-day old bean plants by excising each plant above the cotyledonery node. The cuttings were planted in vermiculite treated with various concentrations of the indicated compounds. Fourteen days after treatment, the portion of the cutting subtending the root mass was removed and dried for 48 hrs. at 50° C.

[2] = test system: Parenchyma tissue from heads of romaine lettuce; assay: Formation of callus tissue in lettuce parenchyma sections; type: cell-based; settings: 7 days at 26 degrees in the dark, average initial weight 0.04 g
Description: Note: Parenchyma tissue was obtained from heads of romaine lettuce. Cylinders measuring 5 mm in diameter and 20 mm in length were removed with a cork borer from the stalks of lettuce heads. The cylinders were sterilized in a 10% solution of commercial bleach (sodium hypochlorite). Three (3) mm wide circular sections were removed from the sterilized cylinders and 10 sections were placed in petri dishes containing various concentrations of auxins and MO formulated in sterilized agar/mineral salts/kinin media. The sections were incubated at 26 degrees in the dark for seven (7) days. At the end of the incubation period, the callus tissue in each treatment was weighed and the average weight of each section was recorded. The average initial weight of the sections was 0.04 g.

[3] = test system: explants of Nicotiana tobaccum, Ficus benjamina, Kalanchoe, and Hosta; assay: Stage II (multiplication) micropropagation of explants; type: cell-based
Description: MO produced an equivalent amount of growth at 10^−8 M and maximal growth at 10^−7 M.
Stage II and Stage III micropropagation of various plant species using IAA or MO as auxin source. Explants were placed in various concentrations of sterilized IAA or MO formulated in sterilized agar/mineral salts/kinnin media.

[4] = test system: explants of various plant species; assay: Stage III (rooting) micropropagation of explants; type: cell-based; settings: Stage III (rooting) medium
Description: Stage III micropropagation of various plant species using IAA or MO as auxin source. Explants were placed in various concentrations of sterilized IAA or MO formulated in sterilized agar/mineral salts/kinnin media

[5] = test system: hardwood trees; assay: Wound healing (callus formation) on sawed-off branches of hardwood trees, lanolin paste; type: in vivo; settings: final concentration 10^−5M, compared with IAA
Description: Use of pure solutions of MO to stimulate healing in plants by aiding in the formation of callus tissue at the wound site. This would have the prophylactic effect of preventing infection in wounded trees. Application of MO in a solution, gel or lanolin paste preparation induces rapid formation of protective callus tissue. Refer to Table II for data summary. Large branches of hardwood trees were sawed off and treated with either IAA or MO prepared in lanolin paste.

[6] = test system: cuttings from tomatoes, begonias, African violets, roses, soybeans and peas; assay: Root formation in cuttings from various plants; type: in vivo
Description: Use of MO and its solutions prepared by novel methods for stimulation of root formation in plant cuttings and as replacement for IAA or synthetic auxins in plant tissue culture. […] Refer to FIG. 2 for typical response of cuttings to test compounds and Table I for data summary.

[7] = test system: plants; assay: Physiological (auxin) responses of plants compared with IAA; settings: MO obtained from purified 3-Brox
Description: It is well known that at suitable concentrations, IAA can stimulate the growth of excised stem segments, promote root development in cuttings, and in combination with another group of plant growth substances known as kinins, can regenerate intact plants from single cells or meristematic tissue.

[8] = test system: Hosta; assay: Micropropagation of Hosta in Stage I, II and III media; type: cell-based
Description: Photographic evidence showing the comparative response of explants to IAA and MO in Stage II and Stage III growth media is available on request. A description of the photos is provided herein.

[9] = Stage II (multiplication) medium

SMILES	Emergence of roots (No. of days after treatment) ([1]; 10^−4M)	Average dry wt (grams) of root mass (14 days after treatment) ([1]; 10^−4M)	Average dry wt (grams) of root mass (14 days after treatment) ([1]; 10^−5M)	Emergence of roots (No. of days after treatment) ([1]; 10^−6M)	Average dry wt (grams) of root mass (14 days after treatment) ([1]; 10^−6M)	Weight in grams of Callus tissue ([2]; 10^−4 moles/L)	Weight in grams of Callus tissue ([2]; 10^−5 moles/L)	Weight in grams of Callus tissue ([2]; 10^−6 moles/L)	Weight in grams of Callus tissue ([2]; 10^−7 moles/L)	Weight in grams of Callus tissue ([2]; 10^−8 moles/L)	Emergence of roots (No. of days after treatment) ([1]; 10^−5M)	concentration required to produce maximal growth [3, 9]	other results
O=C(O)CCCc1c[nH]c2ccccc12 [IBA, indolebutyric acid]	9 days	5 grams	7 grams	5 days	7 grams	0.05 g	0.18 g	0.70 g	0.55 g	0.12 g	–	–	–
O=C(O)Cc1cccc2ccccc12 [NAA, napthaleneacetic acid]	8 days	5 grams	7 grams	8 days	2 grams	0.06 g	0.15 g	0.85 g	0.60 g	0.20 g	9 days	–	–
O=C(O)Cc1c[nH]c2ccccc12 [IAA, Indole-3-acetic acid]	7 days	8 grams	10 grams	9 days	7 grams	0.08 g	0.25 g	1.2 g	0.80 g	0.40 g	7 days	10^−5 M	–
C=C1C(=O)Nc2ccccc21 [MO, 3-methyleneoxindole]	–	–	–	4 days	11 grams	0.02 g	0.15 g	1.5 g	1.95 g	1.75 g	–	10^−7 M	Emergence of roots (No. of days after treatment) ([1]; 10^−7M): 4 days; Average dry wt (grams) of root mass (14 days after treatment) ([1]; 10^−7M): 13 grams; Emergence of roots (No. of days after treatment) ([1]; 10^−8M): 6 days; Average dry wt (grams) of root mass (14 days after treatment) ([1]; 10^−8M): 10 grams; concentration producing growth equivalent to IAA at its most effective concentration [3, 9]: 10^−8 M; fold more effective than IAA and the synthetic auxins ([3]; Stage II medium): 1,000 fold; fold more effective than IAA and the synthetic auxins [4]: 1,000 fold; healing of wound by callus formation [5]: healed rapidly by forming callus tissue over the wound; root formation compared with IAA, napthaleneacetic acid and indolebutyric acid [6]: more profuse roots in a much shorter time and at significantly lower concentrations; fold as effective as IAA in eliciting physiological responses [7]: 100-1000 fold; effectiveness compared with synthetic auxins [8]: far more effective than the synthetic auxins
